Laboratory results as given in patent US20230027066A1 (Urovant Sciences GmbH, priority 2019, published 2023).
Like-named read-outs stand apart in the source and are kept apart here.

What was measured:
[1] = system: men and women with overactive bladder; assay: Phase 3 study (75 mg), patient-reported outcomes (OAB-q LF, PGI); assay type: in vivo, human; parameters: OAB-q sleep score, improvement greater than placebo / HRQL Total Score, improvement greater than placebo / OAB-q HRQL Total Score, Active - Placebo LS Means Difference: scale not given here
Description: Patients completed paper questionnaires at the site at the start of each required study visit to assess patient-perceived symptom relief, symptom bother, and health-related quality of life at the study visits. […] These included the following questionnaires:
1. Global Impression Items include Patient Global Impression of Severity (PGI-Severity), Patient Global Impression of Control (PGI-Control), Patient Global Impression of Frequency (PGI-Frequency), Patient Global Impression of Leakage (PGI-Leakage), and Patient Global Impression of Change (PGI-Change).
2. Overactive Bladder Questionnaire (OAB-q long form [OAB-q LF], 1-week recall) is a 33-item patient-administered, disease-specific questionnaire that includes a Health-Related QoL (HRQL) scale (25 items) and a Symptom Bother Scale (8 items). The HRQL is a multidomain concept that represents the patient's general perception of the effect of illness and treatment on physical, psychological, and social aspects of life. […] In the present study, the HRQL scale is divided into 4 subscales: Coping, Concern/Worry, Sleep, and Social Interaction. The Coping subscale (also referred to as the coping domain score) was a secondary endpoint, with items scored from 1 (none of the time) to 6 (all the time), with higher scores indicating better QoL. The HRQL total score is calculated by summating the individual HRQL subscale scores. The Symptom Bother Scale items are scored from 1 (not at all) to 6 (a very great deal), with higher Symptom Bother scores indicating greater symptom severity. The instrument was developed and validated in both continent and incontinent OAB patients, including both men and women.
With the exception of the symptom bother score, a responder was defined as having a change from baseline ≥10. For symptom bother score, a responder was defined as having a change from baseline […]. A higher proportion of patients represented a favorable response.

[2] = 40-week extension study (52 weeks), adverse events
Description: Approximately 500 men and women with overactive bladder who completed 12 weeks in the parent study were permitted to enroll, at approximately 110 study sites in the U.S.
Secondary endpoints were evaluation of CFB at Week 52 in average number of micturitions, Urge Urinary Incontinence (UUI) episodes, urgency episodes, and total urinary incontinence episodes. All CFB calculations used the parent study Baseline value.

[3] = Description: A placebo group was included in the main study, and a group that received tolterodine monotherapy was included in the main study and in the extension.
[4] = 50% Total Incontinence Responders, Week 12
[5] = Week 12, responder = change from baseline ≥10
[6] = vibegron 75 mg/day, 12-week treatment

Structure (SMILES): O=C(Nc1ccc(C[C@@H]2CC[C@H]([C@H](O)c3ccccc3)N2)cc1)[C@@H]1CCc2nccc(=O)n21 [Vibegron, (6S)-N-[4-[[(2S,5R)−5-[(R)-hydroxy(phenyl)methyl]pyrrolidin−2-yl]methyl]phenyl]−4-oxo−7,8-dihydro−6H-pyrrolo[1,2-a]pyrimidine−6-carboxamide]
- OAB-q Coping Subscore, Change from baseline at week 12, LS Means (SE) [1, 4]: 20.3 (1.35)
- OAB-q Coping Subscore, Mean [1, 4]: 83.08 (18.924)
- OAB-q Symptom Bother Subscore, Change from baseline at week 12, LS Means [1, 4]: −25.5
- OAB-q Symptom Bother Subscore, Mean [1, 4]: 21.18
- Change from Baseline in PGI-Control, LS Mean ([1]; 75% UUI Responders, Week 4): −0.8 (0.06)
- PGI-Control, Mean (SD) ([1]; 75% UUI Responders, Week 4): 2.42 (0.887)
- Change from Baseline in PGI-Control, LS Mean ([1]; 75% UUI Responders, Week 8): −1.0 (0.06)
- PGI-Control, Mean (SD) ([1]; 75% UUI Responders, Week 8): 2.25 (0.863)
- Change from Baseline in PGI-Control, LS Mean ([1]; 75% UUI Responders, Week 12): −1.2 (0.06)
- OAB-q Coping Subscore, Change from baseline at week 12, LS Means (SE) ([1]; 75% UUI Responders, Week 12): 19.7 (1.48)
- OAB-q Coping Subscore, Mean (SD) ([1]; 75% UUI Responders, Week 12): 83.99 (19.232)
- OAB-q Symptom Bother Subscore, Change from Baseline at Week 12, LS Means (SE) ([1]; 75% UUI Responders, Week 12): −25.8 (1.38)
- OAB-q Symptom Bother Subscore, Mean (SD) ([1]; 75% UUI Responders, Week 12): 20.13 (15.862)
- PGI-Control, Mean (SD) ([1]; 75% UUI Responders, Week 12): 2.02 (0.784)
- OAB-q Concern Subscore, Week 12 Mean (SD) ([1]; Week 12): 80.58 (21.867)
- OAB-q Concern responders, Difference from Placebo ([1]; Week 12): 5.9
- OAB-q Concern, Active - Placebo LS Means Difference ([1]; Week 12): 5.0
- OAB-q Concern, change from baseline LS Means (SE) ([1]; Week 12): 15.3 (1.24)
- OAB-q Coping Score, Active - Placebo LS Means Difference ([1]; Week 12): 3.6
- OAB-q Coping Score, change from baseline LS Means (SE) ([1]; Week 12): 16.5 (1.31)
- OAB-q Coping Sub score, Week 12 Mean (SD) ([1]; Week 12): 77.26 (23.242)
- OAB-q Coping responders, Difference from Placebo ([1]; Week 12): 7.5
- OAB-q HRQL Total Score, Active - Placebo LS Means Difference ([1]; Week 12): 3.8
- OAB-q HRQL Total Score, change from baseline LS Means (SE) ([1]; Week 12): 14.6 (1.12)
- OAB-q Sleep Subscore, Week 12 Mean (SD) ([1]; Week 12): 75.59 (23.883)
- OAB-q Sleep responders, Difference from Placebo ([1]; Week 12): 2.1
- OAB-q Sleep, Active - Placebo LS Means Difference ([1]; Week 12): 4.5
- OAB-q Sleep, change from baseline LS Means (SE) ([1]; Week 12): 14.9 (1.34)
- OAB-q Social Interaction Subscore, Week 12 Mean (SD) ([1]; Week 12): 88.57 (18.011)
- OAB-q Social Interaction responders, Difference from Placebo ([1]; Week 12): 5.4
- OAB-q Social Interaction, Active - Placebo LS Means Difference ([1]; Week 12): 1.5
- OAB-q Social Interaction, change from baseline LS Means (SE) ([1]; Week 12): 10.2 (0.97)
- OAB-q Symptom Bother Subscore, Week 12 Mean (SD) ([1]; Week 12): 27.78 (19.816)
- OAB-q Symptom Bother responders, Difference from Placebo ([1]; Week 12): 11.8
- OAB-q Symptom Bother, Active - Placebo LS Means Difference ([1]; Week 12): −6.9
- OAB-q Symptom Bother, change from baseline LS Means (SE) ([1]; Week 12): −19.6 (1.24)
- OAB-q Total HRQL Score, Week 12 Mean (SD) ([1]; Week 12): 80.12 (20.175)
- OAB-q Total HRQL responders, Difference from Placebo ([1]; Week 12): 5.5
- OAB-q Symptom Bother responders, % ([1]; Week 12, responder = change from baseline ≤−10): (70.1) %
- OAB-q Concern responders, % [1, 5]: (55.7) %
- OAB-q Coping responders, % [1, 5]: (61.9) %
- OAB-q Sleep responders, % [1, 5]: (53.9) %
- OAB-q Total HRQL responders, % [1, 5]: (54.1) %
- HRQL Total Score, improvement greater than placebo [1, 6]: 3.8
- OAB-q coping domain score, improvement greater than placebo [1, 6]: 3.6
- OAB-q sleep score, improvement greater than placebo [1, 6]: 4.5
- OAB-q symptom bother score, decrease more than placebo [1, 6]: 6.9
- Discontinued the study: Death ([2]; 40-Weeks arm): 1 (1.1) n (%)
- Discontinued the study: Death ([2]; 52-Weeks arm): 0 n (%)
- SAEs resulting in death (not considered related by Investigator or Sponsor) ([2]; Overall groups): 1 (0.4) n (%)
- Discontinued the study: Death ([2]; Overall groups, Randomized Set Extension): 1 (0.4) n (%)
- Discontinued the study: Adverse Event ([2]; both, human, in vivo): 4 (1.5) n (%)
- Patients with at least one treatment-emergent adverse event ([2]; both, human, in vivo): 171 (62.6) n (%)
- Patients with at least one treatment-emergent serious AE ([2]; both, human, in vivo): 9 (3.3) n (%)
- SAEs considered treatment-related by the investigator ([2]; both, human, in vivo): 1 (0.4) n (%)
- SAEs: Hospitalization ([2]; both, human, in vivo): 7 (2.6) n (%)
- SAEs: Other serious criteria ([2]; both, human, in vivo): 1 (0.4) n (%)
- Discontinued the study: Adverse Event ([2]; both, human, in vivo, 40 weeks): 1 (1.1) n (%)
- AE leading to discontinuation of study drug: Acute prerenal failure ([2]; both, human, in vivo, 52 weeks): 0 n (%)
- AE leading to discontinuation of study drug: Amnesia ([2]; both, human, in vivo, 52 weeks): 1 (0.4) n (%)
- AE leading to discontinuation of study drug: Any ([2]; both, human, in vivo, 52 weeks): 4 (1.5) n (%)
- AE leading to discontinuation of study drug: Aortic stenosis ([2]; both, human, in vivo, 52 weeks): 0 n (%)
- AE leading to discontinuation of study drug: Atrial fibrillation ([2]; both, human, in vivo, 52 weeks): 0 n (%)
- AE leading to discontinuation of study drug: Blood creatinine increased ([2]; both, human, in vivo, 52 weeks): 1 (0.4) n (%)
- AE leading to discontinuation of study drug: Blood urea increased ([2]; both, human, in vivo, 52 weeks): 1 (0.4) n (%)
- AE leading to discontinuation of study drug: Cardiac failure ([2]; both, human, in vivo, 52 weeks): 0 n (%)
- AE leading to discontinuation of study drug: Cardiomyopathy ([2]; both, human, in vivo, 52 weeks): 0 n (%)
- AE leading to discontinuation of study drug: Chronic kidney disease ([2]; both, human, in vivo, 52 weeks): 0 n (%)
- AE leading to discontinuation of study drug: Constipation ([2]; both, human, in vivo, 52 weeks): 1 (0.4) n (%)
- AE leading to discontinuation of study drug: Diarrhea ([2]; both, human, in vivo, 52 weeks): 1 (0.4) n (%)
- AE leading to discontinuation of study drug: Dizziness ([2]; both, human, in vivo, 52 weeks): 0 n (%)
- AE leading to discontinuation of study drug: Dry eye ([2]; both, human, in vivo, 52 weeks): 0 n (%)
- AE leading to discontinuation of study drug: Dyspnoea ([2]; both, human, in vivo, 52 weeks): 0 n (%)
- AE leading to discontinuation of study drug: Haematuria ([2]; both, human, in vivo, 52 weeks): 0 n (%)
- AE leading to discontinuation of study drug: Headache ([2]; both, human, in vivo, 52 weeks): 0 n (%)
- AE leading to discontinuation of study drug: Intervertebral disc degeneration ([2]; both, human, in vivo, 52 weeks): 0 n (%)
- AE leading to discontinuation of study drug: Mitral valve incompetence ([2]; both, human, in vivo, 52 weeks): 0 n (%)
- AE leading to discontinuation of study drug: Osteoarthritis ([2]; both, human, in vivo, 52 weeks): 0 n (%)
- AE leading to discontinuation of study drug: Pulmonary embolism ([2]; both, human, in vivo, 52 weeks): 0 n (%)
- AE leading to discontinuation of study drug: Sinus tachycardia ([2]; both, human, in vivo, 52 weeks): 0 n (%)
- AE leading to discontinuation of study drug: Tricuspid valve incompetence ([2]; both, human, in vivo, 52 weeks): 0 n (%)
- AE: Anaemia ([2]; both, human, in vivo, 52 weeks): 7 (2.6) n (%)
- AE: Atrial fibrillation ([2]; both, human, in vivo, 52 weeks): 0 n (%)
- AE: Back pain ([2]; both, human, in vivo, 52 weeks): 6 (2.2) n (%)
- AE: Blood pressure increased ([2]; both, human, in vivo, 52 weeks): 2 (0.7) n (%)
- AE: Bronchitis ([2]; both, human, in vivo, 52 weeks): 8 (2.9) n (%)
- AE: Constipation ([2]; both, human, in vivo, 52 weeks): 10 (3.7) n (%)
- AE: Diarrhea ([2]; both, human, in vivo, 52 weeks): 13 (4.8) n (%)
- AE: Dizziness ([2]; both, human, in vivo, 52 weeks): 4 (1.5) n (%)
- AE: Dry mouth ([2]; both, human, in vivo, 52 weeks): 5 (1.8) n (%)
- AE: Fatigue ([2]; both, human, in vivo, 52 weeks): 3 (1.1) n (%)
- AE: Headache ([2]; both, human, in vivo, 52 weeks): 15 (5.5) n (%)
- AE: Hyperglycemia ([2]; both, human, in vivo, 52 weeks): 7 (2.6) n (%)
- AE: Hypertension ([2]; both, human, in vivo, 52 weeks): 24 (8.8) n (%)
- AE: Hypotension ([2]; both, human, in vivo, 52 weeks): 0 n (%)
- AE: Musculoskeletal pain ([2]; both, human, in vivo, 52 weeks): 6 (2.2) n (%)
- AE: Nasopharyngitis ([2]; both, human, in vivo, 52 weeks): 13 (4.8) n (%)
- AE: Nausea ([2]; both, human, in vivo, 52 weeks): 10 (3.7) n (%)
- AE: Residual urine volume increased ([2]; both, human, in vivo, 52 weeks): 7 (2.6) n (%)
- AE: Syncope ([2]; both, human, in vivo, 52 weeks): 0 n (%)
- AE: Tachycardia (Sinus Tachycardia) ([2]; both, human, in vivo, 52 weeks): 1 (0.4) n (%)
- AE: Upper respiratory tract infection ([2]; both, human, in vivo, 52 weeks): 10 (3.7) n (%)
- AE: Urinary retention ([2]; both, human, in vivo, 52 weeks): 3 (1.1) n (%)
- AE: Urinary tract infection ([2]; both, human, in vivo, 52 weeks): 18 (6.6) n (%)
- Discontinued the study: Adverse Event ([2]; both, human, in vivo, 52 weeks): 3 (1.6) n (%)
- frequency of injuries ([3]; human, in vivo): 0.9%
- Accidental overdose ([3]; vibegron 3 mg): 3 (2.1) n (%)
- Accidental overdose ([3]; vibegron 15 mg): 6 (4.5) n (%)
- Accidental overdose ([3]; vibegron 50 mg): 4 (2.7) n (%)
- Accidental overdose ([3]; vibegron 100 mg): 11 (4.2) n (%)
